# Measured values: patent EP0558569B1, “MEDICAMENTS CONTAINING SULPHONAMIDES, NOVEL SULPHONAMIDES AND PROCES FOR PRODUCING THEM” (BOEHRINGER MANNHEIM GMBH, priority 1990, dated 1992)
# Columns and labels:
# Plasma-LDL = experiment: Stabilisation of plasma LDL against Cu(II) oxidation: prolongation of the lag phase of diene formation (A 234); format: biochemical, human; conditions: 3 Moleküle Testsubstanz pro LDL-Partikel; LDL 125 »g Protein/ml, 10 »M CuCl₂, pH 8, 42° C
# Description: (§1) e) In-vitro-Wirkung der Verbindungen der Formel I und I' Hemmung der Cholesterinesterbildung in Makrophagen (nach Huber et al. (1990) Free Rad. Res. Comms. 8, 167-173): Humanplasma-LDL wurde durch sequenzielle Ultrazentrifugation bei präselektierten Dichten aus dem Plasma gesunder männlicher Nichtraucher isoliert und für 5 h bei 37° C in F-10 Medium + 1 »M Cu(II) zur Depletion seiner lipophilen Antioxidantien inkubiert. Die Bildung von Cholesterinestern in P 388 D.1 Makrophagen unter Einfluß von konditioniertem human Plasma-LDL wurde nach 18 h Inkubation der Zellen (2 x 10⁶/ml) in F-10 Medium + 1 » M Cu(II) + 50 »g/ml LDL + 5 % FCS nach Extraktion der Neutralfette dünnschichtchromatographisch gemessen. […] Stabilisierung von Plasma-LDL (nach Huber et al. (1990) Free Rad. Res. Comms. 8, 167-173): LDL (125 »g Protein/ml) wurde in 20 mM Tris-Cl pH 8, 150 mM NaCl, 10 »M CuCl₂ mit und ohne Testverbindung (gelöst in Äthanol, Äthanolendkonzentration 0,5 %) bei 42° C oxidiert. Es wurden jeweils 3 Moleküle Testsubstanz pro LDL-Partikel eingesetzt. Die Oxidation wurde kontinuierlich photometrisch bei A 234 durch die Messung der Dienbildung verfolgt. Die sogenannte "lag Phase" ist als dasjenige Zeitintervall definiert, das sich aus dem Schnittpunkt der Tangente der Kurve während der Propagationsreaktion der Lipidperoxidation und er Zeitachse ergibt. […] Hemmung der Sojabohnenlipoxygenase (15-Lipoxygenase) am LDL-Substrat (nach Cathcart et al. (1991) J. Lipid Res. 32, 63-70): LDL (100 »g Protein/ml) wurde in 20 mM Tris-Cl pH 8,3, 150 mM NaCl mit und ohne Testsubstanz (gelöst in Äthanol, Endkonzentration des Äthanol 0,5 %) mit 5000 U/2ml Sojabohnen-Lipoxygenase (Sigma, München) bei 37° C inkubiert: Die Oxidation wurde durch Messung der Diene kontinuierlich bei A 234 verfolgt. Als IC₅₀-Wert wird diejenige Konzentration der Testverbindung angegeben, die zur Halbierung der im Testansatz über die Zeit linearen Dienbildung führt.
# P 388 D.1 Makrophagen = experiment: Inhibition of cholesterol ester formation in macrophages under conditioned human plasma LDL (after Huber et al. 1990); format: cell-based; conditions: for inhibition at 10 µM / IC50: Mus musculus, P388D1, 18 h; for inhibition at 10 µM: read-out: Hemmung der Cholesterinesterbildung in Macrophagen (P388D.1) 10 »M %; for IC50: read-out: Hemmung der Cholesterinesterbildung in Macrophagen (P388D.1) IC₅₀
# Description: as §1
# [1] = test system: Ratten mit diätetisch induzierter Hypercholesterinämie; experiment: Dose-dependent effect on serum cholesterol in rats with diet-induced hypercholesterolaemia; format: in vivo, SD Ratten; conditions: for S-Cholesterin: 4 days on 2 % Cholesterin/0,2 % Cholsäure diet, measured day 5, Mittelwerte +/- SEM, n=6; for % Kontrollen: S-Cholesterin as % of controls (dose 0 = 100)
# Text: Die Verbindungen der Formel I bzw. I' sind Antioxidantien-Sulfonamidanaloga, die Hemmstoffe der Cholesterinesterbildung in der Arterienwand zur Behandlung der Arteriosklerose darstellen. a) Die Zytogenese der Atheromatose Hypercholesterinämie und Syndrome von Hypercholesterinämie/Hypertriglyceridämie Syndrome sind Risikofaktoren für die vorzeitige Arteriosklerose. In der Pathogenese der arteriosklerotischen Läsion selbst spielt die oxidative Modifikation von Lipoproteinen in der Arterienwand eine wichtige Rolle. Sie führt zur Freisetzung von chemotaktisch wirksamen Mediatoren und zur Wanderung von makrophagozytären Zellen aus dem Blut in die Arterienwand. In der Gefäßwand nehmen Makrophagen besonders intensiv oxidativ verändertes low-density lipoprotein (LDL) unreguliert auf. Die damit verbundene Erhöhung des Cholesterininfluxes und die Belastung des zellulären Stoffwechsels führt zu einem Anstieg des intrazellulären Cholesterins, einer Steigerung der Reacylierung des Cholesterins und Speicherung der Cholesterinester, die wiederum zur Ausbildung großer cytoplasmatischer Cholesterinesterdepots und zur Degeneration dieser Makrophagen ("Schaumzellen") führen. Die Schaumzellen sind das zelluläre Substrat des Atheroms und verursachen die makroskopisch sichtbaren Fettstreifen, aus denen sich dann die fibrösen Plaqueläsionen bei Fortschreiben der Erkrankung entwickeln. b) Die Grundlagen für eine antiatherosklerotische Therapie bei Fettstoffwechselstörungen Eine an die Kausalzusammenhänge orientierte antiatherosklerotische Therapie fußt idealerweise auf mindestens drei Säulen: 1. einer Senkung pathologisch erhöhter Lipidspiegel im Plasma durch Diät und/oder Pharmaka, 2. einem wirksamen Antioxidantienschutz besonders des stark atherogenen LDL zur Verminderung des oxidativen LDL-Katabolismus im Atherom und 3. einer Hemmung der Cholesterinesterbildung in den Schaumzellen der fettstreifigen Frühläsionen. Einige Senker des Serum-Cholesterins wirken, indem sie den hepatischen Pool des freien Cholesterins kontrahieren und den Katabolismus des atherogenen LDL-Cholesterins erhöhen: Ionenaustauscher interferieren z. B. mit dem enterhepatischen Cholesterinkreislauf, führen zur Depletion der Gallensäuren in den Hepatozyten und stimulieren die LDL-Cholesterinaufnahme aus dem Plasmakompartment durch eine vermehrte hepatische Aufnahme von Cholesterin über LDL und die hepatischen Apo B,E-Rezeptoren (LDL-Rezeptoren). Ähnlich wirken die Cholesterinsynthese-blocker, z. B. Lovastatin. Sie vermindern das hepatische Cholesterin und bedingen ebenfalls eine gesteigerte Aufnahme von LDL-Cholesterin aus dem Plasma über eine Vermehrung der LDL-Rezeptoren. Auch Hemmer der Cholesterinresorption bedingen eine Absenkung des hepatischen Cholesterinpools, indem sie die exogene diätetische Belastung durch Cholesterin reduzieren. Beispiele hierfür sind die sogenannten Acyl CoA: cholesterinacyltransferase (ACAT)-Hemmer, die in den Enterozyten den Cholesterinefflux via Chylomikronen durch die Hemmung der Veresterung freien Cholesterins unterbinden. In der Leber wird durch diese Hemmer der Cholesterinesterbildung zusätzlich das freie Cholesterin erhöht und die endogene hepatische Cholesterinbiosynthese durch Endprodukt-Hemmung indirekt gehemmt. In den Schaumzellen des Atheroms wird durch die Blockade der Cholesterinesterbildung erhöht freies Cholesterin in den "Reverse Cholesterol Transport pathway" der high-density lipoproteins (HDL) eingebracht, daraus entsteht ein zusätzlicher direkter antiatherogener Effekt. Antioxidantien sind Substanzen, die - allgemein gesehen - eine erhebliche Verzögerung der oxidativen Vorgänge bei einem zu schützenden Produkt bewirken. […] Es ist ein sterisch gehindertes Alkylphenol, das im LDL akkumuliert. […] Methode: 220-250 g schwere SD Ratten erhielten eine Standarddiät, die mit 2 % Cholesterin/0,2 % Cholsäure angereichert wurde, über 4 Tage. […]
Structure (SMILES),"Stabilisierung von Plasma LDL: Verlängerung d. ""lag-Phase"" % (Plasma-LDL)",inhibition at 10 µM (P 388 D.1 Makrophagen),IC50 (P 388 D.1 Makrophagen),other results
"CC(C)(C)c1cc(CNS(=O)(=O)c2ccc(Cl)cc2)cc(C(C)(C)C)c1O [Beispiel 2, 4-Chlorbenzolsulfo-(3,5-di-tert.butyl-4-hydroxy)benzylamid]",44%,78.7%,2500 nM,–
"CN(Cc1cc(C(C)(C)C)c(O)c(C(C)(C)C)c1)S(=O)(=O)c1ccc(Cl)cc1 [Beispiel 3, N-Methyl-4-chlorbenzolsulfo-(3,5-di-tert.butyl-4-hydroxy)benzylamid]",40%,54.9%,–,–
CC(C)(C)c1cc(CCCNS(=O)(=O)c2ccc(Cl)cc2)cc(C(C)(C)C)c1O [Beispiel 4b],–,49.2%,–,–
"CC(C)c1cc(C(C)C)c(S(=O)(=O)NCc2cc(C(C)(C)C)c(O)c(C(C)(C)C)c2)c(C(C)C)c1 [Beispiel 5.10, 2,4,6-tris-Isopropyl-benzolsulfo-(3,5-di-tert.butyl-4-hydroxy)benzylamid]",99%,60.3%,7000 nM,–
CC(C)c1cc(C(C)C)c(S(=O)(=O)NCCc2cc(C(C)(C)C)c(O)c(C(C)(C)C)c2)c(C(C)C)c1 [Beispiel 5.17],50%,78%,–,–
CCCCS(=O)(=O)NCCCc1cc(C(C)(C)C)c(O)c(C(C)(C)C)c1 [Beispiel 5.19],–,43.8%,–,–
"CC(C)(C)c1cc(CCNS(=O)(=O)c2ccc(F)cc2)cc(C(C)(C)C)c1O [Beispiel 5.28, 2-[4-Fluorbenzolsulfo-(3,5-di-tert.butyl-4-hydroxy)]-phenethylamid]",25%,92.6%,1200 nM,S-Cholesterin ([1]; 5 mg/kg/d by gavage in 2 ml Pflanzenöl): 187 +/- 23 mg %; S-Cholesterin ([1]; 15 mg/kg/d by gavage in 2 ml Pflanzenöl): 120 +/- 15 mg %; S-Cholesterin ([1]; 50 mg/kg/d by gavage in 2 ml Pflanzenöl): 114 +/- 14 mg %; S-Cholesterin ([1]; 100 mg/kg/d by gavage in 2 ml Pflanzenöl): 84 +/- 8 mg %; % Kontrollen ([1]; 5 mg/kg/d): 75%; % Kontrollen ([1]; 15 mg/kg/d): 48%; % Kontrollen ([1]; 50 mg/kg/d): 46%; % Kontrollen ([1]; 100 mg/kg/d): 33%
CC(Cc1cc(C(C)(C)C)c(O)c(C(C)(C)C)c1)NS(=O)(=O)C(C)C (stereo not drawn) [Beispiel 5.31],18%,33.9%,–,–
"CC(C)(Sc1cc(C(C)(C)C)c(O)c(C(C)(C)C)c1)Sc1cc(C(C)(C)C)c(O)c(C(C)(C)C)c1 [Probucol, reference compound]",10%,–,–,"Hemmung der Cholesterbildung (P 388 D.1 Makrophagen; reference substance at 10 »M, n=7, printed as positive inhibition): 25-42%"
